Experimental data reported in patent US20030144347A1, “Method for treating autoimmune disease” (priority 2001, published 2003).

Columns and labels:
[1] = system: patient suffering from multiple autoimmune diseases; experiment: Case report: patient suffering from multiple autoimmune diseases; format: in vivo, human; settings: Example 15
Method: A patient suffering from multiple autoimmune diseases was treated with topiramate. The patient was suffering from systemic lupus erythematosis (SLE) acquired anemia of gamma globulins, rheumatoid arthritis, Renaud's phenomena and Hashimotos thyroiditis. The patient was also taking medrol at doses of 32 mg per day and up to 132 mg per day and 25 mg weekly injections of methotrexate.
The topiramate treatment was begun at 15 mg per day and increased weekly by 15 mg to […] and then stabilized at 50 mg per day after two months. […] The frequency and intensity of their iritis, which was occurring every one to two months and lasting for 1 to 2 weeks, described as an “incredible pain relieved only by wrapping my eyes and head with a black towel”, decreased. It has occurred only once since using Topamax® when their parent was dying. […] The patient drove to their last appointment, which is the first time they have been able to do so in five years. They have now had consistent benefits for more than 6 months.

[2] = system: patient with rapid mood swings and severe intense itching; experiment: Case report: patient with rapid mood swings and severe intense itching; format: in vivo, human; settings: Example 19; 12.5 mg at bedtime increased weekly until 50 mg
Method: A patient presented with rapid mood swings and a complaint of severe intense itching from clothing tags and some clothing, which began over twenty years ago. They were begun on gabapenten which was increased to 300 mg qid. […] Their itching was unchanged. They were begun on Topamax 12.5 mg at bedtime which was increased weekly by 12.5 mg until 50 mg.

[3] = system: animal model of kindled epilepsy; settings: cited from earlier work
[4] = system: patient suffering from ulcerative colitis; experiment: Case reports: patients suffering from ulcerative colitis; format: in vivo, human; settings: Example 9
Method: A patient suffering from ulcerative colitis began taking 25 mg per day of topiramate, with dosage increases of 25 mg/day each week. […] By the end of nine months, the patient's weight was decreased to 270 lbs from 315 lbs. Their disease was no longer affecting their ability to go to or stay at work. Their colonoscopy exam was negative for the first time since the onset of their illness.

[5] = system: patient suffering from psoriasis; experiment: Case reports: patients suffering from psoriasis; format: in vivo, human
Method: A patient suffering from psoriasis began taking 15 mg per day of topiramate for seven days, which was increased by 15 mg per day until reaching a dose of 45 mg/day in equally divided doses.

[6] = system: patient suffering from ulcerative colitis; experiment: Case reports: patients suffering from ulcerative colitis; format: in vivo, human
[7] = system: patient suffering from systemic lupus erythematosis; experiment: Case report: patient suffering from systemic lupus erythematosis; format: in vivo, human; settings: Example 11
Method: A young adolescent patient suffering from systemic lupus erythematosis and taking 30 mg bid of prednisone began taking 15 mg per day of topiramate. […] The prednisone was reduced to 25 mg per day after 4 weeks and to 10 mg after 6 weeks. This benefit has continued for over 6 months.

[8] = system: patient suffering from rheumatoid arthritis; experiment: Case reports: patients suffering from rheumatoid arthritis; format: in vivo, human
Method: A patient suffering from rheumatoid arthritis was administered 25 mg per day of topiramate with an increase every 10 days by 25 mg until 25 mg, 3 times per day, was achieved. The patient previously took 3 or 4 tablets per day of lortab, seven 2.5 mg tablets of methotrexate once a week, 200 mg per day of minocycline and 10 mg per day of prednisone.
An adolescent patient suffering from rheumatoid arthritis began taking 15 mg per day of topiramate for one week, which was then increased by 15 mg weekly until 45 mg per day, in three divided dosages of 15 mg each, was reached. The patient previously took 3 to 5 mg of prednisone daily.
A patient suffering from rheumatoid arthritis with a positive rheumatic factor about 3 decades earlier, at which time they also experienced polyarthritis and Renaud's phenomena, was treated with prednisone 40 mg per day for six months and was then weaned off the prednisone after one year. In the ensuing years, psoriasis developed on both elbows which was worse in the winter. They were an avid golfer and experienced painful swelling and stiffness of both wrists and hands, especially the left, and back pain and stiffness. […] They were begun on Topamax 15 mg a day which was increased weekly by 15 mg until 45 mg per day was taken in divided doses.

[9] = system: human epilepsy; settings: clinical trials; cited from earlier work
[10] = system: patient suffering from psoriatic arthritis; experiment: Case reports: patients suffering from psoriatic arthritis; format: in vivo, human
Method: A patient suffering from psoriatic arthritis began taking 15 mg per day of topiramate. […] When the dose was increased slightly to 25 mg twice a day, the patient realized they were experiencing minimal pain and resumed garden work using a rototiller for the first time in two years. These benefits have continued for more than five months at this dose. […] This has continued for more than ten months. A patient suffering from psoriatic arthritis began taking 25 mg per day of topiramate. The dosage was increased each week until […] was achieved. […] The patient was stabilized at 25 mg, twice a day, for convenience. Their benefits from topiramate have continued for almost five months.

[11] = system: patient suffering from diabetes, Type 1; experiment: Case report: patient suffering from diabetes, Type 1; format: in vivo, human; settings: Example 2
Method: A patient suffering from diabetes, Type 1, was administered 25 mg per day of topiramate for 10 days, which was then increased to 50 mg per day.

[12] = Example 6, 25 mg per day, 4 weeks

CC1(C)O[C@@H]2[C@@H](CO[C@@]3(COS(N)(=O)=O)OC(C)(C)O[C@@H]23)O1 [topiramate, 2,3:4,5-bis-O-(1-methylethylidence)-β-D-fructopyranose sulfamate]
time without another episode of iritis [1]: five
frequency and intensity of iritis ([1]; 50 mg per day): decreased
duration of consistent benefits ([1]; despite cessation of methotrexate): more than 6 months
pain when walking ([1]; up to 65 mg per day, stabilized at 50 mg per day, medrol reduced to 5 mg per day): very significant decrease in pain when walking
itching [2]: no itching at all
mood [2]: true stabilization of my mood
seizures [3]: effectively block seizures
colonoscopy exam [4]: negative
symptoms ([4]; 50 mg twice a day): decreased intensity of symptoms
symptoms ([4]; 75 mg twice a day): decreased frequency of symptoms
diarrhea ([4]; 100 mg twice a day, asakol dosage reduced): diarrhea had stopped
time at which PASI decrease was maintained ([5]; Example 12): 16 weeks
psoriasis area and severity index (PASI) ([5]; Example 12, 25 mg bid, within 8 weeks, from 12.2): 5.4
lesions ([5]; Example 12, after 10 days at 45 mg): began to decrease
lesions ([5]; Example 16, 15 mg every other day): minimal improvement
lesions ([5]; Example 16, 15 mg per day for 7 days): some improvement
lesions ([5]; Example 16, 30 mg/day in divided dosages): began to get worse
lesions ([5]; Example 16, 45 mg/day in divided doses): clear deterioration
lesions ([5]; Example 16, 60 mg per day): new lesions were occurring
PASI ([5]; Example 16, within the first eight weeks, judged to be unchanged): 29.1
duration of benefit ([6]; Example 8, 7.5 mg per day): more than 16 weeks
mucous ([6]; Example 8, 7.5 mg per day, after 7 days): decrease in mucous
mucous and bleeding ([6]; Example 8, 7.5 mg per day, after two weeks): no mucous or bleeding
adverse effect ([6]; Example 8, 15 mg per day): tired during the day
stools, bowel frequency, mucous ([6]; Example 8, 15 mg per day, after two weeks): stools became darker with increase bowel frequency of movements and mucous
mucous, bowel movements, bleeding ([6]; Example 8, resumed at 7.5 mg per day): decrease in mucous, bowel movements and bleeding
duration of benefit ([6]; Example 10, 7.5 mg per day): 18 weeks
bowel frequency, bleeding and mucous ([6]; Example 10, 15 mg per day, within one week): significant decrease in bowel frequency, bleeding and mucous
bowel frequency, bleeding and mucous ([6]; Example 10, dose increased to 30 and then to 45 mg per day): reversal of benefits and then a further exacerbation of systems
bowel frequency, bleeding and mucous ([6]; Example 10, resumed at 7.5 mg per day): significant decrease in frequency of bowel movement, bleeding and mucous
clinical change ([7]; 15 mg in the morning and 30 mg every evening): further improvement
clinical change ([7]; 15 mg per day, after seven days): minimal change
carbohydrate craving ([7]; 15 mg twice a day): markedly reduced
facial and body rash, headaches, joint pain ([7]; 15 mg twice a day): began to subside, headaches disappeared and joint pain greatly diminished
energy and mood ([7]; 15 mg twice a day, over the next two weeks): striking improvement in energy and mood
duration of benefit ([7]; prednisone reduced to 10 mg): over 6 months
duration of benefit ([8]; Example 3): 15 weeks
mobility ([8]; Example 3, 25 mg, 3 times per day): increased mobility
pain (patient reported) ([8]; Example 3, 25 mg, 3 times per day, lortab and minocycline discontinued, prednisone and methotrexate reduced): significant decrease in pain
decrease in pain ([8]; Example 4, adolescent patient, 15 mg twice a day): 40-50%
reduction in pain ([8]; Example 4, adolescent patient, 45 mg per day): 70%
duration of benefits ([8]; Example 4, prednisone decreased to 0.5 mg/day): four
psoriasis ([8]; Example 17, 45 mg per day in divided doses): improvement in their psoriasis
joint pain in both hands, self-rating scale of 0 to 10 ([8]; Example 17, 45 mg per day in divided doses, decreased from 6): 2
efficacy in simple and complex partial seizures and secondarily generalized seizures [9]: effective as adjunctive therapy or as monotherapy
getting out of bed ([10]; Example 5, 15 mg every morning and 30 mg every evening, after one month): able to more easily get out of bed
skin lesions and joint pain ([10]; Example 5, 15 mg twice per day): some improvement in skin lesions and decreased joint pain
duration of benefits ([10]; Example 5, 25 mg twice a day): more than five
pain ([10]; Example 5, 25 mg twice a day): minimal pain
duration of improvement ([10]; Example 6, 7.5 mg twice a day): more than ten
adverse effect [10, 12]: severe lethargy
middle knuckle swelling [10, 12]: significant reduction and almost total disappearance
course of improvement ([10]; Example 6, dose reduced to 7.5 mg twice a day): improvement continued
duration of benefits ([10]; Example 7, 25 mg, twice a day): five
pain and mobility ([10]; Example 7, 45 mg per day): significant decrease in pain and greater mobility
follow-up period with blood glucose remaining in that range [11]: 16 weeks
